Assays:
Conditions in all cases: incubation time: 72 h
CAL-120 [1] = assay: normalised viability (% of control), CellTiter-Blue; higher = more viable cells (about 100 = DMSO control)
Protocol: (§1)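 DSRT, CellTiter-Blue viability, 72 h incubation. Signal is normalised to DMSO and benzethonium chloride controls. Value is the normalised response at dose 3.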

MFM-223 [2] = assay: as above
Protocol: as §1

DU-4475 = assay: as above
Protocol: as §1

SK-BR-3 = assay: as above
Protocol: as §1

MDA-MB-453 [3] = assay: as above
Protocol: as §1

CAL-85-1 [4] = assay: as above
Protocol: as §1

CAL-148 [5] = assay: as above
Protocol: as §1

HCC1143 [6] = assay: as above
Protocol: as §1

MDA-MB-436 = assay: as above
Protocol: as §1

Hs578T = assay: as above
Protocol: as §1

BT-474 [7] = assay: as above
Protocol: as §1

HDQ-P1 = assay: as above
Protocol: as §1

CAL-51 = assay: as above
Protocol: as §1

HCC1599 = assay: as above
Protocol: as §1

MDA-MB-231 [8] = assay: as above
Protocol: as §1

HCC1937 [9] = assay: as above
Protocol: as §1

BT-549 = assay: as above
Protocol: as §1

MDA-MB-468 = assay: as above
Protocol: as §1

CAL-120 [10] = assay: drug sensitivity score (DSS), CellTox Green (DSS (AUC-based score)); higher = stronger drug effect (viability inhibition or cytotoxicity); extreme values may be limits of the assay
Method in brief: (§2)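 In 384-well plates, compound was laid out at 5 concentrations in 10-fold steps over a 10,000-fold range specific to each compound, and breast cancer cell lines were seeded on top in 20 µl suspension for a 72 h incubation. CellTox Green fluorescence and then CellTiter-Glo luminescence were read, and each plate was normalised to 0.1 % DMSO and a positive kill control. The drug sensitivity score was calculated from the area under the fitted dose-response curve.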

MFM-223 [11] = assay: as above
Method in brief: as §2

MDA-MB-453 [12] = assay: as above
Method in brief: as §2

CAL-85-1 [13] = assay: as above
Method in brief: as §2

CAL-148 [14] = assay: as above
Method in brief: as §2

HCC1143 [15] = assay: as above
Method in brief: as §2

BT-474 [16] = assay: as above
Method in brief: as §2

MCF-10A = assay: as above
Method in brief: as §2

MDA-MB-231 [17] = assay: as above
Method in brief: as §2

HCC1937 [18] = assay: as above
Method in brief: as §2

| Structure (SMILES) | normalised viability (CAL-120 [1]; 100 nM) | normalised viability (MFM-223 [2]; 100 nM) | normalised viability (DU-4475; 10 nM) | normalised viability (SK-BR-3; 100 nM) | normalised viability (MDA-MB-453 [3]; 10 nM) | normalised viability (CAL-85-1 [4]; 10 nM) | normalised viability (CAL-148 [5]; 10 nM) | normalised viability (HCC1143 [6]; 100 nM) | normalised viability (MDA-MB-436; 100 nM) | normalised viability (Hs578T; 100 nM) | drug sensitivity score (CAL-120 [10]) | drug sensitivity score (MFM-223 [11]) | drug sensitivity score (MDA-MB-453 [12]) | drug sensitivity score (CAL-85-1 [13]) | drug sensitivity score (CAL-148 [14]) | drug sensitivity score (HCC1143 [15]) | drug sensitivity score (BT-474 [16]) | drug sensitivity score (MCF-10A) | drug sensitivity score (MDA-MB-231 [17]) | drug sensitivity score (HCC1937 [18]) | other results |
| --- | --- | --- | --- | --- | --- | --- | --- | --- | --- | --- | --- | --- | --- | --- | --- | --- | --- | --- | --- | --- | --- |
| CN(C)c1nc(N(C)C)nc(N(C)C)n1 [Altretamine] | 95.5% | 97.2% | 104% | 92.2% | 97.5% | 102% | 102% | 91.7% | 89.5% | 96.1% | 0 | 0 | 0 | 0 | 0 | 0 | 0 | 0 | 0 | 0 | normalised viability (BT-474 [7]; 100 nM): 117%; normalised viability (HDQ-P1; 10 nM): 105%; normalised viability (CAL-51; 10 nM): 103%; normalised viability (HCC1599; 100 nM): 109%; normalised viability (MDA-MB-231 [8]; 100 nM): 96.8%; normalised viability (HCC1937 [9]; 100 nM): 91.8%; normalised viability (BT-549; 100 nM): 84.4%; normalised viability (MDA-MB-468; 100 nM): 104% |
| O=C(/C=C/c1cccc(S(=O)(=O)Nc2ccccc2)c1)NO [Belinostat] | 66.3% | 96.4% | 109% | 65.7% | 95.8% | 89.7% | 91% | 96.6% | 95.3% | 70.2% | 9.87 | 4.75 | 0.0261 | 11.5 | 8.43 | 0 | 8.01 | 10.5 | 17.8 | 0 | normalised viability (BT-474 [7]; 100 nM): 90.4%; normalised viability (HDQ-P1; 10 nM): 121%; normalised viability (CAL-51; 10 nM): 105%; normalised viability (HCC1599; 100 nM): 82.8%; normalised viability (MDA-MB-231 [8]; 100 nM): 93.7%; normalised viability (HCC1937 [9]; 100 nM): 92.4%; normalised viability (BT-549; 100 nM): 91.2%; normalised viability (MDA-MB-468; 100 nM): 88.5% |
| O=P1(N(CCCl)CCCl)NCCCO1 (stereo not drawn) [Cyclophosphamide] |  |  |  |  |  |  |  |  |  |  | 0 | 0 | 0 | 0 | 0 | 0 | 0 | 0 | 0 | 0 | normalised viability (CAL-120 [1]; 400 nM): 85.6%; normalised viability (MFM-223 [2]; 400 nM): 91.1%; normalised viability (DU-4475; 40 nM): 103%; normalised viability (SK-BR-3; 400 nM): 91.6%; normalised viability (MDA-MB-453 [3]; 40 nM): 110%; normalised viability (CAL-85-1 [4]; 40 nM): 101%; normalised viability (CAL-148 [5]; 40 nM): 103%; normalised viability (HCC1143 [6]; 400 nM): 90.2%; normalised viability (MDA-MB-436; 400 nM): 101%; normalised viability (Hs578T; 400 nM): 93%; normalised viability (BT-474 [7]; 400 nM): 118%; normalised viability (HDQ-P1; 40 nM): 97.9%; normalised viability (CAL-51; 40 nM): 107%; normalised viability (HCC1599; 400 nM): 109%; normalised viability (MDA-MB-231 [8]; 400 nM): 97.8%; normalised viability (HCC1937 [9]; 400 nM): 99.8%; normalised viability (BT-549; 400 nM): 117%; normalised viability (MDA-MB-468; 400 nM): 109% |
| C=C1C[C@@H]2[C@H](CC[C@]3(C)C(=O)CC[C@@H]23)[C@@]2(C)C=CC(=O)C=C12 [Exemestane] | 92.7% | 93% | 91.1% | 78% | 102% | 84.4% | 95.4% | 96% | 82.8% | 94.4% | 0 | 0 | 0 | 1.08 | 0 | 0 | 0 | 0 | 0 | 0 | normalised viability (BT-474 [7]; 100 nM): 99.4%; normalised viability (HDQ-P1; 10 nM): 102%; normalised viability (CAL-51; 10 nM): 96.2%; normalised viability (HCC1599; 100 nM): 87.6%; normalised viability (MDA-MB-231 [8]; 100 nM): 99.2%; normalised viability (HCC1937 [9]; 100 nM): 103%; normalised viability (BT-549; 100 nM): 106%; normalised viability (MDA-MB-468; 100 nM): 111% |
| O=C(Nc1ccncc1)C(=O)c1cn(Cc2ccc(Cl)cc2)c2ccccc12 [Indibulin] | 36.5% | 108% | 108% | 18.9% | 84.8% | 106% | 105% | 64% | 73.8% | 67.7% | 0.995 | 4.4 | 0 | 11.7 | 0 | 0 | 1.31 | 0 | 8.72 | 0 | normalised viability (BT-474 [7]; 100 nM): 41.7%; normalised viability (HDQ-P1; 10 nM): 95.8%; normalised viability (CAL-51; 10 nM): 100%; normalised viability (HCC1599; 100 nM): 146%; normalised viability (MDA-MB-231 [8]; 100 nM): 52%; normalised viability (HCC1937 [9]; 100 nM): 30.4%; normalised viability (BT-549; 100 nM): 69.9%; normalised viability (MDA-MB-468; 100 nM): 61.1% |
| NC(=O)c1ccc(I)c([N+](=O)[O-])c1 [Iniparib] | 105% | 92.4% | 101% | 72.4% | 86.2% | 87.6% | 96.3% | 86.8% | 88.5% | 91.8% | 0.0859 | 0 | 0 | 0 | 0 | 1.54 | 0 | 1.4 | 0 | 0 | normalised viability (BT-474 [7]; 100 nM): 94.6%; normalised viability (HDQ-P1; 10 nM): 108%; normalised viability (CAL-51; 10 nM): 93%; normalised viability (HCC1599; 100 nM): 103%; normalised viability (MDA-MB-231 [8]; 100 nM): 98.8%; normalised viability (HCC1937 [9]; 100 nM): 109%; normalised viability (BT-549; 100 nM): 106%; normalised viability (MDA-MB-468; 100 nM): 96.7% |

Reference: the supplement of paper PMC4862054
